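Grown in 96-well plates, cells were treated for 48 hours with each compound at five concentrations. Insufficient inhibition: endpoint recorded as highest concentration tested. Abbreviation: GI50, concentration required for 50% inhibition of growth.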 Active and inactive are the calls of the source. Rule as the data show it: active = GI50 up to about 1.1 µM and inactive = higher.
Legend:
Experiment in all cases: DTP human tumour cell line panel, 48 h
SNB-19 = test system: SNB-19
TK-10 = test system: TK-10
KM12 = test system: KM12
PC-3 = test system: PC-3
RXF 393 = test system: RXF 393
MCF7 = test system: MCF7
NCI-H23 = test system: NCI-H23
MOLT-4 = test system: MOLT-4
K562 = test system: K562
MDA-N = test system: MDA-N
ACHN = test system: ACHN
HOP-92 = test system: HOP-92
SF-295 = test system: SF-295
OVCAR-3 = test system: OVCAR-3
OVCAR-4 = test system: OVCAR-4
A549 = test system: A549
SK-MEL-2 = test system: SK-MEL-2
HOP-62 = test system: HOP-62
IGROV-1 = test system: IGROV-1
Hs-578T = test system: Hs-578T

Measured: GI50

O=C1C=CC2(O[C@H](c3ccccc3)[C@@H](c3ccccc3)O2)[C@H](Sc2ccccc2O)C1
inactive: SNB-19 1.72 µM | KM12 1.98 µM | SF-295 6.43 µM | A549 2.73 µM | SK-MEL-2 2.02 µM | HOP-62 1.85 µM
active: TK-10 0.29 µM | PC-3 0.7 µM | RXF 393 0.238 µM | MCF7 0.27 µM | NCI-H23 0.708 µM | MOLT-4 0.0286 µM | K562 0.405 µM | MDA-N 0.316 µM | ACHN 0.351 µM | HOP-92 0.52 µM | OVCAR-3 0.418 µM | OVCAR-4 1.08 µM | IGROV-1 0.281 µM | Hs-578T 0.836 µM

[N-]=[N+]=Nc1c(Cl)c(Cl)nc2ccccc12
inactive: SNB-19 > 100 µM | TK-10 95.9 µM | KM12 > 100 µM | PC-3 > 100 µM | RXF 393 88.5 µM | MCF7 54.5 µM | NCI-H23 75.5 µM | MOLT-4 32.7 µM | K562 81.3 µM | MDA-N > 100 µM | ACHN 91.4 µM | HOP-92 35.3 µM | SF-295 82.8 µM | OVCAR-3 34.5 µM | OVCAR-4 85.7 µM | A549 > 100 µM | SK-MEL-2 > 100 µM | HOP-62 > 100 µM | IGROV-1 77.6 µM | Hs-578T 61.8 µM

Nc1ccc2c(c1)Cc1ccccc1-2
inactive: SNB-19 > 100 µM | TK-10 > 100 µM | KM12 41.5 µM | PC-3 64.9 µM | RXF 393 48.1 µM | MCF7 > 100 µM | NCI-H23 47.6 µM | MOLT-4 34.7 µM | K562 84.1 µM | MDA-N > 100 µM | ACHN 95.1 µM | HOP-92 28.9 µM | SF-295 > 100 µM | OVCAR-3 45.4 µM | OVCAR-4 > 100 µM | A549 65 µM | SK-MEL-2 99.8 µM | HOP-62 60 µM | IGROV-1 89.9 µM | Hs-578T > 100 µM

Cc1ccc(S(=O)(=O)CNC(=O)C(O)(O)C(F)(F)F)cc1
inactive: SNB-19 > 100 µM | TK-10 > 100 µM | KM12 > 100 µM | PC-3 > 100 µM | RXF 393 > 100 µM | MCF7 > 100 µM | NCI-H23 > 100 µM | MOLT-4 > 100 µM | K562 > 100 µM | MDA-N > 100 µM | HOP-92 > 100 µM | SF-295 > 100 µM | OVCAR-3 > 100 µM | OVCAR-4 > 100 µM | A549 > 100 µM | SK-MEL-2 > 100 µM | HOP-62 > 100 µM | IGROV-1 > 100 µM | Hs-578T > 100 µM

CCN(CC)c1ccc2cc(-c3csc(-c4ccc(N(C)C)cc4)n3)c(=O)oc2c1
inactive: SNB-19 > 100 µM | TK-10 > 100 µM | KM12 67.9 µM | PC-3 > 100 µM | RXF 393 > 100 µM | MCF7 > 100 µM | MOLT-4 > 100 µM | K562 > 100 µM | MDA-N > 100 µM | ACHN > 100 µM | HOP-92 > 100 µM | SF-295 > 100 µM | OVCAR-4 > 100 µM | A549 > 100 µM | SK-MEL-2 > 100 µM | HOP-62 > 100 µM | IGROV-1 > 100 µM | Hs-578T > 100 µM

Clc1ccc(OCC2NC3C=CC32)cn1 (configuration not stated)
inactive: SNB-19 > 100 µM | TK-10 > 100 µM | KM12 > 100 µM | PC-3 > 100 µM | RXF 393 > 100 µM | MCF7 55 µM | NCI-H23 > 100 µM | MOLT-4 56 µM | K562 59.3 µM | MDA-N > 100 µM | ACHN > 100 µM | HOP-92 67 µM | SF-295 > 100 µM | OVCAR-3 > 100 µM | OVCAR-4 > 100 µM | A549 > 100 µM | SK-MEL-2 > 100 µM | HOP-62 > 100 µM | IGROV-1 > 100 µM | Hs-578T > 100 µM

COC(=O)C1=C(OC(=O)/C(=C/c2ccc(Cl)cc2)c2ccc(Cl)cc2)C(C(=O)OC)[C@@]2(O)[C@@H](C(=O)OC)[C@H](C)C[C@@H]1[C@@H]2C(=O)OC (some centres not stated)
inactive: SNB-19 16.4 µM | TK-10 > 100 µM | KM12 11 µM | PC-3 12.6 µM | RXF 393 > 61.4 µM | MCF7 58.6 µM | NCI-H23 25.2 µM | K562 2.33 µM | MDA-N > 100 µM | ACHN 25.9 µM | HOP-92 6.67 µM | SF-295 3.22 µM | OVCAR-3 > 45.8 µM | OVCAR-4 50.8 µM | A549 11.5 µM | SK-MEL-2 > 92.7 µM | HOP-62 > 100 µM | IGROV-1 27.6 µM | Hs-578T 39.4 µM
active: MOLT-4 0.328 µM

Reference: ChEMBL document CHEMBL1201862, “PubChem BioAssay data set” (2004)
